Assay results published in publication PMC12259270, “Sensory neuron–expressed FGF13 controls nociceptive signaling in diabetic neuropathy models” (The Journal of Clinical Investigation, 2025).
Residues, ends and D or L forms follow the SMILES beside them. *: point of attachment. Cbz = O=C(OCc1ccccc1)*; NHPh = c1ccc(N*)cc1; OtBu = CC(C)(C)O*

Biological target: T1, FGF13 (Homo sapiens, UniProt Q92913)
T1 construct: Full-length FGF13-1b (aa 1-192) was subcloned into appropriate plasmids; made in house; host or cells: E. coli BL21 (DE3) pLys
T1 sequence (Q92913 1-192 isoform Q92913-2): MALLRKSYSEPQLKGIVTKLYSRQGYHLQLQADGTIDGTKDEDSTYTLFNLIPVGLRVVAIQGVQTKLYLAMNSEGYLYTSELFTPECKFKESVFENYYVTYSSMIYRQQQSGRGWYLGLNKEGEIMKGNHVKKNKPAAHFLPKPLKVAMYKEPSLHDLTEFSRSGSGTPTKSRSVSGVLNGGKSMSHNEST
Test: Surface plasmon resonance (SPR), compound binding to FGF13
Conditions: for Kd: SPR
Protocol: page 6: Split-luciferase Complementation Assay (LCA) Twenty-four hours post transfection, cells were trypsinized using TrypLE (Gibco; cat # 12604013), centrifuged […] plates (Greiner Bio -One; cat # 655073 ) at ~0.8 x 10^5 cells per well in 200 μl of medium. The cells were incubated for another 24 hours, and then the growth medium was replaced with 100 μl serum -free, phenol red -free DMEM/F-12 medium (Invitrogen). All compounds from the PW - and the ZL-series, including PW164 and […] medium and then cells were incubated for two hours. The bioluminescence reaction was initiated by injection of 100 μl of D -luciferin substrate (1.5 mg/ml dissolved in PBS) using a Synergy H4 multimode microplate reader (BioTek). Luminescence readings were initiated after 3 s of mild plate shaking and performed at 2 min intervals […] °C. Raw signal intensity was computed by averaging peak luminescence plus two adjacent time points. Normalized signal intensity was expressed as the percentage of mean signal intensity relative to per plate control […] Surface plasmon resonance (SPR) All SPR experiments were performed on a Biacore T100 (GE Healthcare). […] ([…]) , which was previously described (14) or purified FGF13 were immobilized on CM5 sensor chip using 10 mM sodium acetate buffer (pH 5.5) with Amine Coupling Kit (GE […] to the control channel of the chip. For each compound, stock solution (50 mM) was serially diluted from 300 to 1 […] Samples were injected over the chip for 60 s followed by […] page 7: […] The nonspecific responses (buffer alone) were extracted for injected compound or peptide from experimental sensograms before data analysis. Data was analyzed for kinetic properties using Biacore T100 Analysis software. Visually inspected sensograms/traces were used to calculate the equilibrium constant (KD): i. the maximal responses were plotted against the treated concentrations, and the steady state KD was calculated from the fitted saturation binding curve; ii. a kinetic analysis for all ligand/analyte interaction was obtained by using Langmuir 1:1 interaction fitting model (KD = koff/kon). RNA isolation from DRG Mouse surgical and experimental procedures employed were approved by the University of Texas Medical Branch Institutional Animal Care and Use Committee. Animals were sacrificed using carbon dioxide before confirmation of death, rather than cervical dislocation. Mouse lumbar dorsal root ganglia (L4 and L5) were dissected and collected in Buffer RLT Plus (RNeasy Plus Mini Kit, QIAGEN, cat. nos. 74136). RNA was isolated according to the protocol reported in the same kit. Quantitative reverse transcriptase PCR (qRT-PCR) RNA samples for real-time analysis were then quantified using a Nanodrop Spectrophotometer (Thermo Scientific). cDNA was generated from total RNA (1 μg) in a 20 μl reaction using the reagents of iScriptTM Reverse Transcription Supermix for RT-qPCR (Bio-Rad Laboratories, cat. 1708840). FGF13 gene expression was determined by qRT-PCR. qRT-PCR was performed in duplicate for each sample using 4 μl of cDNA in a total volume of 20 μl using the iTaq Universal SYBR Green Supermix (Bio-Rad, Hercules, CA, United States). All RT-PCR assays were run using the BioRad CFX384 Touch Real-Time PCR System (Bio-Rad, Hercules, CA, United States) with the following conditions: 95°[…]) repeated by 40 cycles and 4°C. […] The internal reference gene for SYBR Green assays was 18[NT] and 5'-CTC

| SMILES | Kd [µM] | Figure 1C Right panel, Mean response versus concentration (concentration 3.12e-6) | Figure 1C Right panel, Mean response versus concentration (concentration 6.25e-6) | Figure 1C Right panel, Mean response versus concentration (concentration 1.25e-5) | Figure 1C Right panel, Mean response versus concentration (concentration 2.5e-5) | Figure 1C Right panel, Mean response versus concentration (concentration 5e-5) | Figure 1C Right panel, Mean response versus concentration (concentration 7.5e-5) | Figure 1C Right panel, Mean response versus concentration (concentration 0.0001) | Figure 1C Right panel, Mean response versus concentration (concentration 0.00015) | Figure 1C Right panel, Mean response versus concentration (concentration 0.0002) | Figure 1C Right panel, Mean response versus concentration (concentration 0.0003) | Figure 1C Right panel, Mean response versus concentration (concentration 7.80E-07) |
| --- | --- | --- | --- | --- | --- | --- | --- | --- | --- | --- | --- | --- |
| COC(=O)[C@@H](NC(=O)[C@H](CCC(=O)OC(C)(C)C)NC(=O)[C@H](CC(C)C)NC(=O)[C@@H]1CCCN1C(=O)OCc1ccccc1)C(C)C [PW164] (Cbz-PLE(OtBu)V-OMe) | 21 ± 3 | – | – | – | – | – | – | – | – | – | – | – |
| CC(=O)N[C@@H](Cc1ccccc1)C(=O)N[C@@H](CC(C)C)C(=O)N1CCC[C@H]1C(=O)N[C@@H](CCCCN)C(=O)Nc1ccccc1 [ZL192] (Ac-FLPK-NHPh) | 4 | 10.5172 | 11.7391 | 12.5757 | 14.2936 | 15.3045 | 16.2485 | 18.1479 | 20.366 | 22.3345 | 22.6291 | 7.018 |
